Reference: patent US7700109B2, “Biomolecule transduction motif Mph-1-BTM and the use thereof” (ForHumanTech. Co., Ltd., priority 2002, dated 2010)

Assays:
Jurkat T cells = assay: Screening of candidate PTD-β-galactosidase fusion proteins for transduction; format: cell-based; conditions: fusion with β-galactosidase
From the text: Based on these two hypotheses and requisites, we searched the gene bank. With the factor that the conventional PTDs have lysines and arginines abundantly, we selected about 10,000 primary candidate genes. Among them, 500 genes were chosen by applying the requisites of signal peptide, and 100 genes of the 500 genes were confirmed as to have alanine and valine. Finally, 20 genes were selected by applying the factors required for the transcription factors, and then the transduction efficiencies were tested therefor. In addition, fusion proteins of each of these candidate PTDs and β-galactosidase were expressed and purified, and the functions of these proteins were detected using Jurkat T cells.

[1] = system: HUVEC, HeLa, 293 and Jurkat cells; assay: Transduction of fusion protein across cell membrane, β-galactosidase staining on slides; format: cell-based; conditions: 0.5 μM, 30 min at 37° C., HeLa, 293, Jurkat cells
Experimental: HUVEC (ATCC:CRL-1730) (2×10^5), HeLa (ATCC:CCL-2) (2×10^5), and 293 (ATCC:CRL-1573) (2×10^5), which were incubated in 10% FBS (Fetal Bovine Serum) of DMEM, were respectively transferred to Lab-tek II chamber slides. Jurkat cells (ATCC:CRL-10915) (2×10^5) incubated in 10% EBS RPMI were transferred to poly-L-lysin coated slides. Each of the slides was treated with the purified 0.5 μM of Mph-1-β-galactosidase for 30 min at 37° C. in 5% CO2 incubator. And the supernatants were removed from the slides. The incubation mixtures were washed using ice-cold PBS four times and then were solidified with 2% formaldehyde solution for 10 min. After removing the solidified solutions, the mixtures were washed again using ice-cold PBS four times. Subsequently, the respective mixtures were treated with 700 μl of β-galactosidase staining solution (Roche. Colo.) for 45 min at 37° C. in 5% CO2 incubator. Following the staining, the mixtures were washed with ice-cold PBS four times after removing the supernatants. Next, the mixtures were mounted with 70% glycerol on the microscope slides.

| Substance | transduction ability (Jurkat T cells) | transduction across the cell membranes (β-galactosidase staining) [1] |
| --- | --- | --- |
| Mph-1-BTM: amino acid sequence 858 to 868 of Mph-1, a mouse transcription factor (SEQ ID NO:1) (YARVRRRGPRR; Biomolecule transduction motif) | unexpectedly significant transduction ability | – |
| β-gal: β-galactosidase reporter protein alone, without transduction peptide | – | not transduced at all |
